Tests used:
[1] = tested on: Penicillium expansum and Botrytis cinerea; experiment: Fungicide fogging of wounded, inoculated Golden Delicious apples: fungal lesion size; assay type: in vivo; conditions: 24 h fog at 20° C., measured Day 3 or 4
Text: Freshly harvested plants and crops, such as fruit crops (e.g. apple fruits), were wounded and inoculated with fungal pathogens. Immediately after harvest on Day 0, Golden Delicious apples were wounded on the left and/or the right sides of the fruit. The wounds were immediately inoculated with one or more fungal strains. For example, the wounds on the left side of the fruit were inoculated with Penicillium, while the wounds on the right side of the fruit were inoculated with Botrytis. After inoculation, the apples remained at 20° C. throughout the remainder of the experimental trial.
Inoculated fruits were separated in preparation for an experimental trial that comprised three replicates of 10-fruit cohorts each totaling 5.1 kg of Golden Delicious apples (see Table 1). After inoculation, the apples were held at 20° C. in a closed, controlled environment until fungicide treatment. Prior to fungicide treatment, a fruit cohort was removed from the controlled environment and transported to a sealed treatment chamber having a temperature of 20° C. The fruit cohorts were each treated with a single respective fungicide on Day 0 (i.e., day of harvest), as well as Days 1, 2, 3, and/or 4 after harvest (see Table 2).
More specifically, each fruit cohort was treated a single time for 24 hours with a specific fungicide solution comprising the following active ingredients: benzoxaborole (BOB), thiabendazole (TBZ), pyrimethanil (PYR), and fludioxonil (FDL) as described in Table 1 below. The fungicide solutions used to treat inoculated apples comprised the following concentration of active ingredients: a 100 g/L of benzoxaborole (BOB), thiabendazole (TBZ), and fludioxonil (FDL), or a 160 g/L of pyrimethanil (PYR), respectively (see Table 1).
Inoculated fruits were also treated with a propylene glycol-inoculated negative control (GLY IC). This propylene glycol-inoculated control treatment comprised only propylene glycol, a common fungicide treatment carrier, with no active ingredient (see Table 1). In addition, another cohort of inoculated fruits was not treated with a fungicide at all to produce an untreated inoculated control (UNTRT IC).
In this trial, replicate cohorts of Golden Delicious apples were treated by fogging with 167 μL of the benzoxaborole (BOB) solution, 270 μL of the thiabendazole (TBZ) solution, 410 μL of the pyrimethanil (PYR) solution, or 170 μL of the fludioxonil (FDL) solution, respectively (see Table 1). The fungicide fogging treatment was applied to the Golden Delicious apples in the sealed treatment chamber comprising a volume of 1.1 m^3 such that the final concentration of active ingredient (“ai”) of each fungicide applied to the Golden Delicious apples during the trial was 3.3 mg/kg of benzoxaborole (BOB), 8.0 mg/kg of thiabendazole (TBZ) solution, 8.5 mg/kg of pyrimethanil (PYR) solution, and 3.3 mg/kg of fludioxonil (FDL), respectively (see Table 1).
After 24 hours of fungicide treatment in the sealed chamber at 20° C., treated apples were returned back to the closed, controlled environment for storage. Storage of treated fruit occurred for at least 12 hours and for up to approximately 72 hours until Day 3 or Day 4 when fungal lesions on the treated fruit were measured (see Table 2). For example, inoculated fruit cohorts treated with fungicide on Day 0, where returned to the control chamber on Day 1 and stored there for at least 12 hours (e.g., approximately 48-72 hours) until their fungal lesions were measured on Days 3 or 4 (see Table 2). Inoculated fruit cohorts treated with fungicide on Day 1, where returned to the control chamber on Day 2 and stored there for at least 12 hours (e.g., approximately 24-48 hours) until their fungal lesions were measured on Days 3 or 4 (see Table 2). […]

[2] = tested on: Botrytis cinerea; experiment: Fungicide fogging of wounded, inoculated Red Delicious apples: Botrytis lesion size; assay type: in vivo, Botrytis cinerea on Red Delicious apples; conditions: measured Day 4
Experimental: (§1) This experiment was conducted exactly the same as described above in Example 1 unless noted otherwise. For example, instead of Golden Delicious apples, this experiment was performed on Red Delicious apples, which are harvested later in the season than Golden Delicious apples. Freshly harvested Red Delicious apples were wounded on the left and right side with Penicillium and Botrytis fungal pathogens, respectively. After inoculation, the apples remained at 20° C. throughout the remainder of the experimental trial to measure growth of the Botrytis fungal pathogen. Inoculated fruits were separated in preparation for an initial trial which comprised three replicates of 10-fruit cohorts totaling 5.5 kg of Red Delicious apples, respectively (see Table 1).
(§2) In this trial, replicate cohorts of Red Delicious apples were fog treated with 250 μL of the benzoxaborole (BOB) solution, 620 μL of the thiabendazole (TBZ) solution, 410 μL of the pyrimethanil (PYR) solution, or 250 μL of the fludioxonil (FDL) solution, respectively (see Table 1). The fungicide fogging treatment was applied to the Red Delicious apples in the sealed treatment chamber comprising a volume of 1.1 m^3 such that the final concentration of active ingredient (“ai”) of each fungicide applied to the Red Delicious apples during the trial was 4.6 mg/kg of benzoxaborole (BOB), 11.2 mg/kg of thiabendazole (TBZ) solution, 11.8 mg/kg of pyrimethanil (PYR) solution, and 4.6 mg/kg of fludioxonil (FDL), respectively (see Table 1).
(§3) After 24 hours of fungicide treatment in the sealed chamber at 20° C., treated apples were returned back to the closed, controlled environment for storage. As described in Example 1, storage of treated Red Delicious apples occurred for at least 12 hours and for up to approximately 72 hours until Day 4 when fungal lesions on the treated Red Delicious apples were measured (see Table 2).

[3] = tested on: Penicillium expansum; experiment: Fungicide fogging of wounded, inoculated Red Delicious apples: Penicillium lesion size; assay type: in vivo, Penicillium expansum on Red Delicious apples; conditions: for Fungal Lesion Diameter: Penicillium expansum, measured Day 4; for Inhibition of Penicillium expansum fungal growth compared to untreated and propylene glycol controls / Penicillium expansum lesion sizes, range over treatment days: treated on Days 0-3
Experimental: as §1, §2, §3
This experiment was conducted exactly the same as described above in Example 2 unless noted otherwise. In particular, freshly harvested Red Delicious apples were wounded on the left and right side with Penicillium and Botrytis fungal pathogens, respectively. After inoculation, the apples remained at 20° C. throughout the remainder of the experimental trial to measure growth of the Penicillium fungal pathogen.

[4] = Fungicide Fog Day 0, Penicillium and Botrytis lesions averaged
[5] = Fungicide Fog Day 1, Penicillium and Botrytis lesions averaged
[6] = Fungicide Fog Day 2, Penicillium and Botrytis lesions averaged
[7] = Fungicide Fog Day 0, 24 h fog at 20° C.
[8] = Fungicide Fog Day 1, 24 h fog at 20° C.
[9] = Fungicide Fog Day 2, 24 h fog at 20° C.
[10] = Fungicide Fog Day 3, 24 h fog at 20° C.

**Q.** What does the source list for `N#CC1=CN=CC1c1cccc2c1OC(F)(F)O2` (stereo not shown) [FDL, 4-(2,2-difluoro-1,3-benzodioxol-4-yl)-1H-pyrrole-3-carbonitrile]?
**A.** Fungal Lesion Diameter [1, 4]: 1.6 mm; Fungal Lesion Diameter [1, 5]: 2.7 mm; Fungal Lesion Diameter [1, 6]: 3.0 mm; Fungal Lesion Diameter [2, 7]: 4.1 mm; Fungal Lesion Diameter [2, 8]: 7.0 mm; Fungal Lesion Diameter [2, 9]: 8.2 mm; Fungal Lesion Diameter [2, 10]: 11.7 mm; Fungal Lesion Diameter [3, 7]: 11.0 mm; Fungal Lesion Diameter [3, 8]: 13.2 mm; Fungal Lesion Diameter [3, 9]: 13.4 mm; Fungal Lesion Diameter [3, 10]: 15.5 mm

**Q.** For `Cc1cc(C)nc(Nc2ccccc2)n1` [PYR, 4,6-Dimethyl-N-phenylpyrimidin-2-amine], which “Fungal Lesion Diameter” value [1, 4] is on record?
**A.** 0.4 mm

**Q.** What about the “Fungal Lesion Diameter” value [1, 5] of the same molecule?
**A.** 1.3 mm

**Q.** What about the “Fungal Lesion Diameter” value [1, 6] of the same molecule?
**A.** 3.6 mm

**Q.** And the “Fungal Lesion Diameter” value [2, 7]?
**A.** 9.2 mm

**Q.** And the “Fungal Lesion Diameter” value [2, 8]?
**A.** 10.4 mm

**Q.** And the “Fungal Lesion Diameter” value [2, 9]?
**A.** 12.4 mm

**Q.** What about the “Fungal Lesion Diameter” value [2, 10] of the same molecule?
**A.** 12.5 mm

**Q.** And the “Fungal Lesion Diameter” value [3, 7]?
**A.** 17.2 mm

**Q.** And the “Fungal Lesion Diameter” value [3, 8]?
**A.** 17.1 mm

**Q.** What about the “Fungal Lesion Diameter” value [3, 9] of the same molecule?
**A.** 18.3 mm

**Q.** And the “Fungal Lesion Diameter” value [3, 10]?
**A.** 18.3 mm

**Q.** And the “Inhibition of Penicillium expansum fungal growth compared to untreated and propylene glycol controls” value [3]?
**A.** Neither treatments comprising pyrimethanil (PYR) nor thiabendazole (TBZ) showed a consistent increase in inhibition of Penicillium expansum fungal growth or any significant difference

**Q.** And the “Penicillium expansum lesion sizes, range over treatment days” value [3]?
**A.** 17.1-18.3 mm

**Q.** Which results are given for `c1ccc2[nH]c(-c3cscn3)nc2c1` [TBZ, 4-(1H-1,3-Benzodiazol-2-yl)-1,3-thiazole]?
**A.** Fungal Lesion Diameter [1, 4]: 2.0 mm; Fungal Lesion Diameter [1, 5]: 4.5 mm; Fungal Lesion Diameter [1, 6]: 4.9 mm; Fungal Lesion Diameter [2, 7]: 10.9 mm; Fungal Lesion Diameter [2, 8]: 12.1 mm; Fungal Lesion Diameter [2, 9]: 12.7 mm; Fungal Lesion Diameter [2, 10]: 12.4 mm; Fungal Lesion Diameter [3, 7]: 18.0 mm; Fungal Lesion Diameter [3, 8]: 18.4 mm; Fungal Lesion Diameter [3, 9]: 17.6 mm; Fungal Lesion Diameter [3, 10]: 18.3 mm; Inhibition of Penicillium expansum fungal growth compared to untreated and propylene glycol controls [3]: Neither treatments comprising pyrimethanil (PYR) nor thiabendazole (TBZ) showed a consistent increase in inhibition of Penicillium expansum fungal growth or any significant difference; Penicillium expansum lesion sizes, range over treatment days [3]: 17.6-18.4 mm
